Results taken from patent publication US10167299B2, “1-(3-aminopropyl) substituted cyclic amine compounds, preparation method therefor, and pharmaceutical compositions and uses thereof” (SHANGHAI INSTITUTE OF MATERIA MEDICA, CHINESE ACADEMY OF …, priority 2013, dated 2019).
≈ marks a conversion by molar mass, not a printed value. Like-named read-outs stand apart in the source and are kept apart here.

How the values were obtained:
CCR5 = CCR5 (Homo sapiens (Human), UniProt P51681); assay: Calcium flux inhibition experiment; format: cell-based; conditions: for IC50: HEK293/CCR5-Gα16 cell line, calcium flux, read-out: CCR5 IC50; for calcium influx inhibition effect in words, versus positive control compounds: conclusion from Table 1
TZM-bl cells = assay: Cytotoxicity (CC50) in TZM-bl cells; format: cell-based; conditions: TZM-bl cells (Table 3)
HIV-1SF162 virus strain [1] = assay: Inhibition activity on TZM-bl cells infected with HIV-1SF162
CCR5 protein = assay: Thermal stability of protein test (CPM-assay); format: binding; conditions: for Tm (° C.): thermal stability of CCR5 protein with compound, CPM dye
Text: Experimental theory: many cysteines are present in CCR5 protein sequence. Cysteines located in loop region form disulfide bonds to stabilize the tertiary structure of the protein. Some free cysteines in reduced state are located in the transmembrane region. Under excitation by incident light of 387 nm, the combination of free sulfhydryl and fluorescent dye CPM can emit excitation light of 436 nm. […] The free sulfhydryls originally located in the transmembrane region expose and combine with the fluorescent dye. And then the detector will detect changes in signal enhancement. Therefore, the thermal stability of membrane proteins can be determined according to the temperature (Tm) at the midpoint of changes in signal intensity.
Experimental steps: Upon preliminary purification, the obtained protein solution was transferred into a small concentration tube (100 kd, 500 ul) for concentration (1000 rcf, 12 min, 4° C.). After centrifugation, the concentration tube was taken out and flicked to prevent protein coagulation due to high local concentration. The final concentrated volume was about 50 μl. 117 μl of purified solution (volume is suitable to make the total volume up to 120 μl), 1 μl fluorescent dye cpm (in-house prepared) and 2 μl of concentrated protein solution (the amount of added protein is 3-5 μg according to the calculated concentration of the protein solution and the concentrated volume) were added to 2 ml Ependorf tube and incubated at room temperature for 20 min. And then the mixture was added to the cuvette (Qwan) and put in the testing equipment Cary, wherein the surface of the frosted glass faced out. The temperature was set in the range of 4-90° C. with 1° C. increase per minute and the program was run. Tm value can be obtained by processing the data and graph with a mapping software and can be used to compare the difference of protein thermal stability under different conditions.

[2] = Cytotoxicity (CC50) in TZM-bl cells; format: cell-based; conditions: human
CYP1A2 = CYP1A2 (Homo sapiens (Human), UniProt P05177); assay: CYP450 inhibition activity assay (Vivid kit) CYP1A2; format: in vitro ADME; conditions: CYP450 subtype (μM) 1A2 (IC50)
Procedure: (§5) VividR CYP450 Screening Kits can be used to evaluate the effects on CYP450 subtypes (CYP1A2, CYP2D6, CYP2C9, CYP2C19, CYP3A4-T and CYP3A4-M) and the substrate VividR in the kit can be metabolizd to a product which can emit strong fluorescence in an aqueous solution by specific CYP450 enzymes.
(§6) The compounds to be tested and positive compound were added to corresponding wells and DMSO was added to control wells.
(§7) CYP450 enzyme was added to the compounds to be tested, positive compound and DMSO control wells. The enzyme dilution was used to replace enzyme and added to DMSO wells as test background. The mixture was vibrated and mixed for 1 minute, and then incubated at room temperature for 20 minutes.
(§8) NADP^+ regeneration system and the substrate were added to initiate the reaction and incubated at room temperature for 60 minutes.

CYP2C9 = CYP2C9 (Homo sapiens (Human), UniProt P11712); assay: CYP450 inhibition activity assay (Vivid kit) CYP2C9; format: in vitro ADME; conditions: CYP450 subtype (μM) 2C9 (IC50)
Procedure: as §5, §6, §7, §8

CYP2C19 = CYP2C19 (Homo sapiens (Human), UniProt P33261); assay: CYP450 inhibition activity assay (Vivid kit) CYP2C19; format: in vitro ADME; conditions: CYP450 subtype (μM) 2C19 (IC50)
Procedure: as §5, §6, §7, §8

CYP2D6 = CYP2D6 (Homo sapiens (Human), UniProt P10635); assay: CYP450 inhibition activity assay (Vivid kit) CYP2D6; format: in vitro ADME; conditions: CYP450 subtype (μM) 2D6 (IC50)
Procedure: as §5, §6, §7, §8

[3] = marketed drug, literature value, species not stated; cited from earlier work
hERG = hERG (Homo sapiens (Human), UniProt Q12809)
Procedure: CHO-hERG cells which have been incubated overnight were added with sample buffer and incubated for 90 minutes at room temperature in darkness.
The sample buffer was removed and assay buffer was added.
The compound is added to the cell plate and incubated for 20 minutes in darkness.
Cell plate was placed into FDSS. The fluorescence signal was recorded every second for 10 seconds. Exciting buffer was added to the cells at the 10th second and the fluorescence signal was recorded every second for 180 seconds

HIV-1SF162 virus strain [4] = assay: Inhibition of viral replication in PBMC infected with HIV-1SF162; format: cell-based
Procedure: (§1) The virus was titrated according to the modified method of Johnson & Byington. Briefly, the HIV-1 stock solution was subject to four-fold dilution in a 96-well plate (ten gradients) sextuplicate for each gradient, while setting six control-wells. Into each well was added 100 μl (5×10^6/ml) PHA-stimulated PBMC cells and final volume per well was 200 μl. The cells were cultured at 37° C. with 5% CO2. […] On the seventh day, the infected supernatant was collected and lysed with 0.5% Triton X100. The p24 antigen was detected by ELISA and TCID50 of virus was calculated according to Reed & Muench method (50% Tissue culture infection dose).
(§2) The starting concentration was 1 μM, six dilutions were obtained, and each well contained 200 μl mixture. While wells not containing drugs were set as control. […] After homogeneously mixed, the mixture was immediately added to 48-well plate containing diluted drug and each well was added with 200 μl of mixture. MVC was used as positive control. The cells were cultured at 37° C. with 5% CO2 for seven days (drug with the same concentration was added on the third day). The supernatant was collected, lysed and inactivated with 0.5% Triton X-100. The inhibition effect of drug on HIV-1 replication was detected using p24 antigen capture ELISA method.

HIV-1KM018 virus strain = assay: Inhibition of viral replication in PBMC infected with HIV-1KM018; format: cell-based; conditions: Human immunodeficiency virus 1, PBMC
Procedure: as §1, §2

HIV-1Ba-L virus strain [5] = assay: Inhibition of viral replication in PBMC infected with HIV-1Ba-L; format: cell-based
Procedure: The virus was titrated according to the modified method of Johnson & Byington. Briefly, the HIV-1 stock solution was subject to four-fold dilution in a 96-well plate (ten gradients) sextuplicate for each gradient, while setting six control-wells. Into each well was added 100 μl (5×10^6/ml) PHA-stimulated PBMC cells and final volume per well was 200 μl. The cells were cultured at 37° C. with 5% CO2. On the third day, 100 μl of fresh RPMI-1640 complete medium was supplemented. On the seventh day, the infected supernatant was collected and lysed with 0.5% Triton X100. The p24 antigen was detected by ELISA and TCID50 of virus was calculated according to Reed & Muench method (50% Tissue culture infection dose).
The compound to be tested was subject to 5-fold dilution in 48-well plate with RPMI-1640 complete medium (containing 10% FBS). The starting concentration was 1 μM, six dilutions were obtained, and each well contained 200 μl mixture. While wells not containing drugs were set as control. Virus (MOI=0.01) was added to 5×10^6/ml of PBMC cells which have been stimulated by PHA for 72 h. After homogeneously mixed, the mixture was immediately added to 48-well plate containing diluted drug and each well was added with 200 μl of mixture. MVC was used as positive control. The cells were cultured at 37° C. with 5% CO2 for seven days (drug with the same concentration was added on the third day). The supernatant was collected, lysed and inactivated with 0.5% Triton X-100. The inhibition effect of drug on HIV-1 replication was detected using p24 antigen capture ELISA method.

[6] = Toxicity test of compounds on PBMC cells (MTT); format: cell-based; conditions: human; PBMC cells (Table 4)
Procedure: (§3) The compound to be tested was subject to 5-fold dilution in a 96-well microtiter plate with RPMI-1640 or DMEM complete medium (containing 10% FBS) (Six dilution) triplicate for each dilution and 100 μl for each well. While wells not containing drugs were set as control. Into each well was added 100 μl of 4×10^5/ml PM1, HOS-CD4-CCR5 cells or 100 μl of 5×10^6/ml PHA stimulated PBMC. The cells were cultured at 37° C. with 5% CO2 for three days (PBMC cells were cultured for seven days and 100 μl of fresh RPMI-1640 complete medium was supplemented on the third day). Cytotoxicity was tested with MTT assay. OD values were measured by ELx800 microplate reader. The detection wavelength was 570 nm, and the reference wavelength was 630 nm.

HIV-1Ba-L virus strain [7] = assay: Inhibition of viral replication in HOS-CD4-CCR5 cells infected with HIV-1Ba-L; format: cell-based
Procedure: (§4) On the day before the test, 1×10^5/ml of HOS-CD4-CCR5 cells were inoculated in 96-well plates with 100 μl for each well. The compound to be tested was subject to 5-fold dilution in 96-well microtiter plate with DMEM complete medium (containing 10% FBS). The starting concentration was 1 μM and six dilutions were obtained. Triplicate wells were set for each dilution and each well contained 100 μl mixture. While wells not containing drugs were set as control. The supernatant was removed and 100 μl of drug was added and incubated for 2 h. Then 100 μl of HIV-1SF162 and HIV-1Ba-L were added to dilute supernatant. The cells were infected for 1 h, free virus was washed out and drug with the same final concentration was added. MVC was used as positive control. The cells were cultured at 37° C. with 5% CO2 for three days. The supernatant was collected, lysed and inactivated with 0.5% Triton X-100. The inhibition effect of drug on HIV-1 replication was detected using p24 antigen capture ELISA method.

HIV-1SF162 virus strain [8] = assay: Inhibition of viral replication in HOS-CD4-CCR5 cells infected with HIV-1SF162; format: cell-based; conditions: Human immunodeficiency virus 1, HOS-CD4-CCR5
Procedure: as §4

[9] = Toxicity test of compounds on HOS-CD4-CCR5 cells (MTT); format: cell-based; conditions: human; HOS-CD4+-CCR5 cells (Table 7)
Procedure: as §3

[10] = TZM-bl cells infected with HIV-1SF162
[11] = TZM-bl cells (Table 3), read-out: CC50
[12] = Human immunodeficiency virus 1, TZM-bl
[13] = Human immunodeficiency virus 1, PBMC

Chain of CCR5 (P51681 whole entry): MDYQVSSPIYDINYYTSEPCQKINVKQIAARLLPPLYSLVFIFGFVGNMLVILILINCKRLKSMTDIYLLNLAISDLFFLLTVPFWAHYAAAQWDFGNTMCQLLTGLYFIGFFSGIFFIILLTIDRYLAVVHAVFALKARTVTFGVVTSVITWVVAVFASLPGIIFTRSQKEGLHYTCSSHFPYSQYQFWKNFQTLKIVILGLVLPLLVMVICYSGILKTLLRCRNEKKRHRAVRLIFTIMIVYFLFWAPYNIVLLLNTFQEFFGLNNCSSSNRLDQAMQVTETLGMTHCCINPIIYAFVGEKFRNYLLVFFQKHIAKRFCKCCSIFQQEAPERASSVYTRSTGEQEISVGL
Chain of hERG (Q12809 whole entry): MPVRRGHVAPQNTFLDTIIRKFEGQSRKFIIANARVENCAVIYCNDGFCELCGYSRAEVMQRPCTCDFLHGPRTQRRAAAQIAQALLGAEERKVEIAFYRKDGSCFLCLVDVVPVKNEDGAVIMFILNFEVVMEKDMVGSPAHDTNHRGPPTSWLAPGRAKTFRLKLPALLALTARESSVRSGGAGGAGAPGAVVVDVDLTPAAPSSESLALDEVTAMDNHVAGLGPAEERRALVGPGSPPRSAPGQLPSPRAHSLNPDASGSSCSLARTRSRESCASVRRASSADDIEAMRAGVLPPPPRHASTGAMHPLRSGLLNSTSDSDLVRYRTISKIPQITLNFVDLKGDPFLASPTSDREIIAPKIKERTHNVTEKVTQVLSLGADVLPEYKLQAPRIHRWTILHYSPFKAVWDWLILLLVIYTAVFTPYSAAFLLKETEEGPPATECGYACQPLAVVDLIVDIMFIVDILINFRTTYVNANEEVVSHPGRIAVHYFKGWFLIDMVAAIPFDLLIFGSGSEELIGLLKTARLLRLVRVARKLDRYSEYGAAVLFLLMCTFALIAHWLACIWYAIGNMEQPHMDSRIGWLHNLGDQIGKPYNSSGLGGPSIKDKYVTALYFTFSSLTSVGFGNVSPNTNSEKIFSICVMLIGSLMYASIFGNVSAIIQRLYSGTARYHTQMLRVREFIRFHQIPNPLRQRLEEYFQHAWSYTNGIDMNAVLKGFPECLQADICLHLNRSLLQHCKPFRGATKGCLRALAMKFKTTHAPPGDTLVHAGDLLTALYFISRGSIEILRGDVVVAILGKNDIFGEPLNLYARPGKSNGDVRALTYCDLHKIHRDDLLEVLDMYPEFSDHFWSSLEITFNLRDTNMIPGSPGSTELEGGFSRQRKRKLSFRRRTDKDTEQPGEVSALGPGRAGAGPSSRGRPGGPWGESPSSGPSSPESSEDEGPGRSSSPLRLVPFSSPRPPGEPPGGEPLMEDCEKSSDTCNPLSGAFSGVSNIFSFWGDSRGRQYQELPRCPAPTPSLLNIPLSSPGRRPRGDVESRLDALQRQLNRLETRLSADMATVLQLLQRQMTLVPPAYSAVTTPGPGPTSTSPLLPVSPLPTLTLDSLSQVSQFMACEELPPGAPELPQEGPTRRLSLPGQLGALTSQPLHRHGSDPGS
Chain of CYP2C9 (P11712 whole entry): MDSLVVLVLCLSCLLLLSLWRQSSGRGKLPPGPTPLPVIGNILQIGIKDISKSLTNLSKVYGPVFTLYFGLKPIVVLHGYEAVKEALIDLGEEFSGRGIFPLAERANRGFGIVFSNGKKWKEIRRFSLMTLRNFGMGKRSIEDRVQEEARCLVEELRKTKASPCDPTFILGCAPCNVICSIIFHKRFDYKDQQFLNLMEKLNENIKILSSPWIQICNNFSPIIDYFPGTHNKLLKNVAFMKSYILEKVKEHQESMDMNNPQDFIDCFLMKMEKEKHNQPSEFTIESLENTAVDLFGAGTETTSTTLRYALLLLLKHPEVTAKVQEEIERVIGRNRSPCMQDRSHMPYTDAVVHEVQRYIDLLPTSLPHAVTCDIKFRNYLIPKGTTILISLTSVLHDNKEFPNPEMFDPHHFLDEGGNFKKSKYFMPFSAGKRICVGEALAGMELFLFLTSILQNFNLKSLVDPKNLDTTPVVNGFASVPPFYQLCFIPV
Chain of CYP1A2 (P05177 whole entry): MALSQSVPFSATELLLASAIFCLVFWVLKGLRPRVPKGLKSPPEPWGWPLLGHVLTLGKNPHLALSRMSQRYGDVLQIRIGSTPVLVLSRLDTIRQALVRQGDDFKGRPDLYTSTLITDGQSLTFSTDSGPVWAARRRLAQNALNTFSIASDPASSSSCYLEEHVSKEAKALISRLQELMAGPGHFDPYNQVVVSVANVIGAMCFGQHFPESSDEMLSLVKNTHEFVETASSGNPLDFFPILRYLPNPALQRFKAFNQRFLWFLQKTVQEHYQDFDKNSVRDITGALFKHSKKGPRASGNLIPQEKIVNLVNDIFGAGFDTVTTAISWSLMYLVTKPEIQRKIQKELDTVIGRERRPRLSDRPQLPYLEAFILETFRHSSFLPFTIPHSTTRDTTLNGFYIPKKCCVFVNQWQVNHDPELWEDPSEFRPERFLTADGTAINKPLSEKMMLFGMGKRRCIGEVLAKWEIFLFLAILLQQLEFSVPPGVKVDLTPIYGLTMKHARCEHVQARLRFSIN
Chain of CYP2C19 (P33261 whole entry): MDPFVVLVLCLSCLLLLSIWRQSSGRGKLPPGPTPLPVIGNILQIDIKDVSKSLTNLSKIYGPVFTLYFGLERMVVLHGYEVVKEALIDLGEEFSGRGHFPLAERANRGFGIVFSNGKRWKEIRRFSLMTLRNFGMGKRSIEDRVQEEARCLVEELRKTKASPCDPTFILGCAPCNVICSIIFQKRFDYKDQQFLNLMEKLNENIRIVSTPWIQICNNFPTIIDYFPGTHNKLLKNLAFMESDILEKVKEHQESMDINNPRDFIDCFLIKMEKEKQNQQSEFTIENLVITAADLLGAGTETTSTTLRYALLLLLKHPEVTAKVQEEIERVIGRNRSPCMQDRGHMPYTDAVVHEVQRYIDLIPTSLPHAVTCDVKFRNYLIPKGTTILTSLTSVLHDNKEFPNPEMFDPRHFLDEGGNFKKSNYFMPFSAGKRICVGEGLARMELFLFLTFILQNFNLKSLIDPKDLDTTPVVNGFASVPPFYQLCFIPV
Chain of CYP2D6 (P10635 whole entry): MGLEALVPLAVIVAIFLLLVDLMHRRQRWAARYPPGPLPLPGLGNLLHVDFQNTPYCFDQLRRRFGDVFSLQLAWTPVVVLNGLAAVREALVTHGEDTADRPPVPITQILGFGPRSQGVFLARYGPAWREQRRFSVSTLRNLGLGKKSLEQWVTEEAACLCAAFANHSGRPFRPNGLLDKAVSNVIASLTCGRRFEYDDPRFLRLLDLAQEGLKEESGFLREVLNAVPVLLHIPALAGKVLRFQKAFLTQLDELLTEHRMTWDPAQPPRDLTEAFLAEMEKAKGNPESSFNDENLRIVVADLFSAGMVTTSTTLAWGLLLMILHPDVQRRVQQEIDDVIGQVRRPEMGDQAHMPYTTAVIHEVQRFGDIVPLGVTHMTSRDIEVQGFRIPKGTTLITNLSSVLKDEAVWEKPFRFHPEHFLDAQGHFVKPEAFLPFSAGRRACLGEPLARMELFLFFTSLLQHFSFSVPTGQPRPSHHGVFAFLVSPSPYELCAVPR

Cc1nnc(C(C)C)n1[C@@H]1C[C@H]2CC[C@@H](C1)N2CC[C@H](NC(=O)C1CCC(F)(F)CC1)c1cccc(F)n1 [Compound 34, 4,4-difluoro-N-[(1S)-3-[exo-3-(3-isopropyl-5-methyl-4H-1,2,4-triazol-4-yl)-8-azabicyclo[3.2.1]octane-8-yl]-1-(6-fluoropyridin-2-yl)propyl]cyclohexane-1-carboxamide]
IC50 (CCR5): 143 nM | CC50 (TZM-bl cells): >200 µg/mL | EC50 (HIV-1SF162 virus strain [1]; [10]): >40 µg/mL

4,4-difluoro-N-[(1S)-3-[exo-3-(3-isopropyl-5-methyl-4H-1,2,4-triazol-4-yl)-8-azabicyclo[3.2.1]octane-8-yl]-1-(pyridin-3-yl)propyl]cyclohexane-1-carboxamide [Compound 6]
IC50 (CCR5): 6.9 nM | calcium influx inhibition effect in words, versus positive control compounds (CCR5): better than the positive control compounds | Tm (° C.) (CCR5 protein): 58.56 °C | CC50 (TZM-bl cells): >100 µg/mL | EC50 (HIV-1SF162 virus strain [1]; [10]): 1.51 µg/mL | therapeutic index (TI) (HIV-1SF162 virus strain [1]; [10]): 66.23

Cc1nnc(C(C)C)n1[C@@H]1C[C@H]2CC[C@@H](C1)N2CC[C@H](NC(=O)C1CCC(F)(F)CC1)c1ccccc1 [Maraviroc, reference compound]
Tm (° C.) (CCR5 protein): 72.17 °C | CC50 [2, 11]: > 200 µg/mL | IC50 (CYP1A2): > 25 µM | IC50 (CYP2C9): 14.4 µM | IC50 (CYP2C19): > 25 µM | IC50 (CYP2D6): > 25 µM | bioavailability as reported [3]: 5% | EC50 (HIV-1SF162 virus strain [1]; [12]): 0.00814 µg/mL (≈ 0.0158 µM)

Cc1nnc(C(C)C)n1C1CC2CCC(C1)N2CC[C@H](NC(=O)C1CCCCC1)c1cccnc1 (stereo partly drawn) [Compound 8, N-[(1S)-3-[exo-3-(3-isopropyl-5-methyl-4H-1,2,4-triazol-4-yl)-8-azabicyclo[3.2.1]octane-8-yl]-1-(pyridin-3-yl)propyl]cyclohexane-1-carboxamide]
IC50 (CCR5): 21.9 nM | Tm (° C.) (CCR5 protein): 60.61 °C | CC50 [2]: > 100 µg/mL | hERG inhibition activity in words, versus positive control compounds (hERG): better that those of positive control compounds | EC50 (HIV-1SF162 virus strain [1]; [12]): 2.69 µg/mL (≈ 5.62 µM) | therapeutic index (TI) (HIV-1SF162 virus strain [1]; [10]): >37.17

4-ethyl-N-[(1S)-3-[exo-3-(3-isopropyl-5-methyl-4H-1,2,4-triazol-4-yl)-8-azabicyclo[3.2.1]octane-8-yl]-1-(thiophen-3-yl)propyl]cyclopentane-1-carboxamide [Compound 20]
IC50 (CCR5): 5.14 nM | calcium influx inhibition effect in words, versus positive control compounds (CCR5): better than the positive control compounds | protein stability effect in words, versus positive control compound (CCR5 protein; conclusion from Table 2): comparable with the positive control compound | Tm (° C.) (CCR5 protein): 70.27 °C | CC50 (TZM-bl cells): 69.68 µg/mL | IC50 (hERG): 14400 nM | hERG inhibition activity in words, versus positive control compounds (hERG): better that those of positive control compounds | EC50 (HIV-1SF162 virus strain [1]; [10]): 0.00487 µg/mL | therapeutic index (TI) (HIV-1SF162 virus strain [1]; [10]): 14308.01

Cc1nnc(C(C)C)n1C1CC2CCC(C1)N2CCC(NC(=O)C1CCC(F)(F)CC1)c1cccs1 (stereo not drawn) [Compound 3, 4,4-difluoro-N-[3-[exo-3-(3-isopropyl-5-methyl-4H-1,2,4-triazol-4-yl)-8-azabicyclo[3.2.1]octane-8-yl]-1-(thiophen-2-yl)propyl]cyclohexane-1-carboxamide]
CC50 at 3 days [2, 11]: > 100 µg/mL | EC50 (HIV-1SF162 virus strain [4]; [13]): 0.146 µg/mL (≈ 0.281 µM) | therapeutic index (TI) (HIV-1SF162 virus strain [4]; PBMC cells infected with HIV-1SF162): 1874 | EC50 (HIV-1KM018 virus strain): 0.0157 µg/mL (≈ 0.0301 µM) | EC50 (HIV-1Ba-L virus strain [5]; [13]): 0.0912 µg/mL (≈ 0.176 µM) | therapeutic index (TI) (HIV-1Ba-L virus strain [5]; PBMC cells infected with HIV-1Ba-L): 3328.9 | CC50 at 7 days [6]: 273 µg/mL (≈ 526 µM) | therapeutic index (TI) (HIV-1Ba-L virus strain [7]; HOS-CD4+-CCR5 cells infected with HIV-1Ba-L): 19495 | EC50 (HIV-1Ba-L virus strain [7]; Human immunodeficiency virus 1, HOS-CD4-CCR5): 0.0171 µg/mL (≈ 0.033 µM) | EC50 (HIV-1SF162 virus strain [8]): 0.0244 µg/mL (≈ 0.047 µM) | CC50 at 3 days [9]: 334 µg/mL (≈ 643 µM) | EC50 (HIV-1SF162 virus strain [1]; [12]): 0.0024 µg/mL (≈ 0.00462 µM) | therapeutic index (TI) (HIV-1SF162 virus strain [1]; [10]): >41666.67 | cytotoxicity in vitro and therapeutic index in words, versus positive control compound (HIV-1SF162 virus strain [1]; TZM-bl cells infected with HIV-1SF162, conclusion from Table 3): better than positive control compound
